System: 648629-189-R-J1-PDC spheroids with HUVEC/MSC, viability
Assay: Anticancer human tumor 648629-189-R-J1-PDC patient-derived bladder carcinoma cell line growth inhibition [PI3K]
Conditions: for IC50: curve of first compound; for viability, T/C: stronger effect = lower value; active means viability on the fitted dose curve at most 10% of control; inactive means the rest
How it was run: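 Agents were dosed from a top concentration near clinical Cmax (otherwise 10 microM) in half-log decrements, alone or combined with PI3K inhibitors. The spheroids contain tumor cells plus endothelial (HUVEC) and MSC stroma; viability is measured.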

[1] = second compound 0.0316 µM, first compound 0.0316 µM
[2] = second compound 0.0316 µM, first compound 0.1 µM
[3] = second compound 0.0316 µM, first compound 0.316 µM
[4] = second compound 0.0316 µM, first compound 1 µM
[5] = second compound 0.1 µM, first compound 0.0316 µM
[6] = second compound 0.1 µM, first compound 0.1 µM
[7] = second compound 0.1 µM, first compound 0.316 µM
[8] = second compound 0.1 µM, first compound 1 µM
[9] = second compound 0.316 µM, first compound 0.0316 µM
[10] = second compound 0.316 µM, first compound 0.1 µM
[11] = second compound 0.316 µM, first compound 0.316 µM
[12] = second compound 0.316 µM, first compound 1 µM
[13] = second compound 1 µM, first compound 0.0316 µM
[14] = second compound 1 µM, first compound 0.1 µM
[15] = second compound 1 µM, first compound 0.316 µM
[16] = second compound 1 µM, first compound 1 µM
[17] = second compound 3.16 µM, first compound 0.0316 µM
[18] = second compound 3.16 µM, first compound 0.1 µM
[19] = second compound 3.16 µM, first compound 0.316 µM
[20] = second compound 3.16 µM, first compound 1 µM
[21] = second compound 10 µM, first compound 0.0316 µM
[22] = second compound 10 µM, first compound 0.1 µM
[23] = second compound 10 µM, first compound 0.316 µM
[24] = second compound 10 µM, first compound 1 µM
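Further: spheroids exposed to agents for seven days before reading.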
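Wherever viability, T/C is given: percent of vehicle control luminescence where 100% = DMSO treated spheroids.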

CC(C)NCC(C(=O)N1CCN(c2ncnc3c2C(C)CC3O)CC1)c1ccc(Cl)cc1 (centres undefined) + Cc1nc(NC(=O)N2CCCC2C(N)=O)sc1-c1ccnc(C(C)(C)C(F)(F)F)c1
< 31.6 nM: IC50 (second compound 10 µM)
506 nM: IC50 (second compound 1 µM)
648 nM: IC50 (second compound 0.316 µM)
719 nM: IC50 (second compound 0.0316 µM)
784 nM: IC50 (second compound 0.1 µM)
inactive: viability, T/C [1] 105% | viability, T/C [2] 82.2% | viability, T/C [3] 73.8% | viability, T/C [4] 40.5% | viability, T/C (second compound 0.0316 µM, first compound 3.16 µM) 23.2% | viability, T/C (second compound 0.0316 µM, first compound 10 µM) 15.7% | viability, T/C [5] 102% | viability, T/C [6] 91% | viability, T/C [7] 75.2% | viability, T/C [8] 42.2% | viability, T/C (second compound 0.1 µM, first compound 3.16 µM) 23.1% | viability, T/C (second compound 0.1 µM, first compound 10 µM) 12.8% | viability, T/C [9] 84.1% | viability, T/C [10] 80.6% | viability, T/C [11] 70.6% | viability, T/C [12] 36.7% | viability, T/C (second compound 0.316 µM, first compound 3.16 µM) 22% | viability, T/C (second compound 0.316 µM, first compound 10 µM) 12.5% | viability, T/C [13] 69.6% | viability, T/C [14] 88.4% | viability, T/C [15] 57.1% | viability, T/C [16] 34.2% | viability, T/C (second compound 1 µM, first compound 3.16 µM) 21.5% | viability, T/C (second compound 1 µM, first compound 10 µM) 12.4% | viability, T/C [17] 61.1% | viability, T/C [18] 53.6% | viability, T/C [19] 43.8% | viability, T/C [20] 32.8% | viability, T/C (second compound 3.16 µM, first compound 3.16 µM) 20.8% | viability, T/C (second compound 3.16 µM, first compound 10 µM) 10.1% | viability, T/C [21] 38% | viability, T/C [22] 34.6% | viability, T/C [23] 28.7% | viability, T/C [24] 20.1% | viability, T/C (second compound 10 µM, first compound 3.16 µM) 13.2%
154 nM: IC50 (second compound 3.16 µM)
active: viability, T/C (second compound 10 µM, first compound 10 µM) 5.54%

CCN1CCN(Cc2ccc(Nc3ncc(F)c(-c4cc(F)c5nc(C)n(C(C)C)c5c4)n3)nc2)CC1 + Cc1nc(NC(=O)N2CCCC2C(N)=O)sc1-c1ccnc(C(C)(C)C(F)(F)F)c1
inactive: viability, T/C (second compound 0.0316 µM, first compound 0.00316 µM) 96.4% | viability, T/C (second compound 0.0316 µM, first compound 0.01 µM) 107% | viability, T/C [1] 104% | viability, T/C [2] 99.2% | viability, T/C [3] 119% | viability, T/C [4] 120% | viability, T/C (second compound 0.1 µM, first compound 0.00316 µM) 101% | viability, T/C (second compound 0.1 µM, first compound 0.01 µM) 103% | viability, T/C [5] 101% | viability, T/C [6] 114% | viability, T/C [7] 100% | viability, T/C [8] 109% | viability, T/C (second compound 0.316 µM, first compound 0.00316 µM) 88.8% | viability, T/C (second compound 0.316 µM, first compound 0.01 µM) 93.7% | viability, T/C [9] 90% | viability, T/C [10] 91.6% | viability, T/C [11] 96.9% | viability, T/C [12] 101% | viability, T/C (second compound 1 µM, first compound 0.00316 µM) 78.2% | viability, T/C (second compound 1 µM, first compound 0.01 µM) 75.5% | viability, T/C [13] 73% | viability, T/C [14] 80.4% | viability, T/C [15] 83.6% | viability, T/C [16] 83.1% | viability, T/C (second compound 3.16 µM, first compound 0.00316 µM) 49.9% | viability, T/C (second compound 3.16 µM, first compound 0.01 µM) 57.7% | viability, T/C [17] 53.8% | viability, T/C [18] 59.3% | viability, T/C [19] 64.7% | viability, T/C [20] 69.8% | viability, T/C (second compound 10 µM, first compound 0.00316 µM) 41.9% | viability, T/C (second compound 10 µM, first compound 0.01 µM) 38.8% | viability, T/C [21] 40.7% | viability, T/C [22] 41.5% | viability, T/C [23] 43.5% | viability, T/C [24] 41.6%
< 3.16 nM: IC50 (second compound 10 µM)
> 1000 nM: IC50 (second compound 0.0316 µM) | IC50 (second compound 0.1 µM) | IC50 (second compound 0.316 µM) | IC50 (second compound 1 µM) | IC50 (second compound 3.16 µM)

Reference: PubChem BioAssay AID1963974 (Molecular Pharmacology Branch, DTP, NCI, 2024)
